The test system of assay [1] is canaux calcium. Put plainly: Calcium flux inhibition (IC50Ca2+) on SK-N-SH nerve cells. It is filed as cell-based. The conditions noted are these: concentration inhibiting 50 % of Ca2+ release, read-out: IC50Ca2+ Sur cellules nerveuses SK-N-SH. The source says: Par ailleurs, le demandeur a trouvé que les amines de formule (I) et en particulier de formule (II) sont des inhibiteurs de canaux calcium (ou de flux calcique) comme […] ou […]. Or, les inhibiteurs de canaux sont connus comme actifs dans le traitement de la chute des cheveux et sur leur effet bénéfique sur la microcirculation (confère description ci-dessus). Pour qu'une substance soit reconnue comme un inhibiteur des canaux calcium, elle doit pouvoir diminuer la concentration intracellulaire en calcium ou diminuer la liaison du calcium aux protéines intracellulaires comme par exemple la calmoduline, tel que cela est notamment décrit par Galizzi, J. P. et al., J. Biol. Chem. 1987, 262 p 6947; par Y. Okamiya et al., Eur. J. Pharmacol. 1991, 205, […]. Wagner et al., J. Neurosci. 1988, 8, […]. Lee et al., Life Sci. 1984, 35, p 721; par Schoemaker H. et Lauger S. Eur. J. Pharmacol. 1985, 111, p 273 ou encore I. J. Reynolds et al., J. Pharmacol. Exp. Ther. 1986, 237, p 731. Selon le protocole indiqué dans ces documents, […]'inhibition de flux calcique des composés (3), (4), (6) et (7), en comparaison […] sont donnés dans le tableau ci-après.

Assay [2] relates to canaux calcium. Description: Calcium flux inhibition (IC50Ca2+) on HDFa skin fibroblast cells. It is filed as cell-based. The conditions noted are these: concentration inhibiting 50 % of Ca2+ release, read-out: IC50Ca2+ Sur cellules issues de fibroblastes de la peau HDFa. The source says:
Par ailleurs, le demandeur a trouvé que les amines de formule (I) et en particulier de formule (II) sont des inhibiteurs de canaux calcium (ou de flux calcique) comme le vérapamil ou l'alvérine. Or, les inhibiteurs de canaux sont connus comme actifs dans le traitement de la chute des cheveux et sur leur effet bénéfique sur la microcirculation (confère description ci-dessus).
Pour qu'une substance soit reconnue comme un inhibiteur des canaux calcium, elle doit pouvoir diminuer la concentration intracellulaire en calcium ou diminuer la liaison du calcium aux protéines intracellulaires comme par exemple la calmoduline, tel que cela est notamment décrit par Galizzi, J. P. et al., J. Biol. Chem. 1987, 262 p 6947; par Y. Okamiya et al., Eur. J. Pharmacol. 1991, 205, p 49; par J. A. Wagner et al., J. Neurosci. 1988, 8, p 3354; par H. R. Lee et al., Life Sci. 1984, 35, p 721; par Schoemaker H. et Lauger S. Eur. J. Pharmacol. 1985, 111, p 273 ou encore I. J. Reynolds et al., J. Pharmacol. Exp. Ther. 1986, 237, p 731.
Selon le protocole indiqué dans ces documents, le demandeur a déterminé l'IC50Ca2+ d'inhibition de flux calcique des composés (3), (4), (6) et (7), en comparaison avec le vérapamil; les résultats sont donnés dans le tableau ci-après. IC50Ca2+ représente la concentration inhibitrice de 50 % de libération de Ca^2+.

Assay [3] concerns coculture nerfs/muscles (cellules musculaires striées humaines). Put plainly: Inhibition of muscle fibre contractions in a nerve/muscle coculture model. The assay is classed as cell-based, humaines; rat. Particulars: 10, 50, 100 µM; 60 s incubation; three muscle fibres; triplicate. As for the experimental part:
La molécule de l'exemple 1 a été testée à différentes concentrations, à savoir 10, 50 et 100 µM, sur un modèle de coculture nerfs/muscles, qui permet de recréer un arc moteur en innervant des cellules musculaires striées humaines avec des explants de moelle épinière et de ganglions rachidiens d'embryons de rat.
Ce test est prédictif d'un effet inhibiteur des contractions des fibres musculaires.
Des cellules musculaires humaines, issues de prélèvements de muscles striés de donneurs sains, sont ensemencées dans des puits de 1,8 cm^2 de section (boîtes de culture de 24 puits). Après 10 jours de culture, ces cellules forment une monocouche et fusionnent. A ce stade, des explants de moelle épinière d'embryons de rat de 13 jours contenant les ganglions rachidiens sont déposés sur la culture.
La croissance des neurites est visible en dehors de l'explant de moelle épinière après un jour de culture. Les premières contractions des fibres musculaires sont observées après 5 à 6 jours de coculture et après 3 semaines, toutes les fibres musculaires au voisinage des explants se contractent.
Les cocultures sont utilisées après 21 jours, quand les fibres musculaires sont striées et possèdent des jonctions neuromusculaires différenciées matures. […]

The results in this text go back to EP1506767A1, “Use of a carbonylated amine for stimulating hairgrowth and/or for slowing down their loss” (L'OREAL, priority 2003, dated 2005).

On to `CCN(CCCc1ccccc1)CCCc1ccccc1` [alvérine, reference compound], for which the IC50 in the assay with canaux calcium [1] is 30 µM.
As to `CCCCCC(=O)CCN(CCCc1ccccc1)CCC(=O)CCCCC` [compound 3], the IC50 in the assay on canaux calcium [2] stood at 18 µM; in the assay on canaux calcium [1], 7 µM.
Take `CCCCCC(=O)CCN(CC)CCCc1ccccc1` [compound 4, 1-(N-éthyl, (3-phényl-)propylamino) octan-3-one]: the IC50 in the assay with canaux calcium [2] worked out at 30 µM; in the assay with canaux calcium [1] it was 18 µM. Moreover, in assay [3], the “contractions des fibres musculaires” value is “bloque les contractions”.
Consider `CCCCCC(=O)CCN(CC)CCc1ccc(OC)c(OC)c1` [compound 6], for which the IC50 in the assay on canaux calcium [2] came out at 22 µM; in the assay with canaux calcium [1], 32 µM.
On to `CCCCCC(=O)CCN(CC)Cc1ccccc1` [compound 7], for which the IC50 in the assay with canaux calcium [2] stood at 18 µM; in the assay with canaux calcium [1], 17 µM.
In the case of `COc1ccc([C@@H]2Sc3ccccc3N(CCN(C)C)C(=O)[C@@H]2OC(C)=O)cc1` [diltiazem, reference compound], the IC50 in the assay on canaux calcium [1] was more than 45 µM.
Same read-out and setting: with `COC(=O)C1=C(C)NC(C)=C(C(=O)OC)C1c1ccccc1[N+](=O)[O-]` [nifédipine, reference compound] the figure was 29 µM.
